We go through 15 molecules from patent publication US4684739A, “Alkylenedioxybenzene derivatives and acid addition salts thereof” (Mitsubishi Chemical Industries Limited, priority 1980, dated 1987).

Structures are written as SMILES. Counter-ions that a name gives are not always drawn.

For data set [1], the system named is spontaneous hypertensive rats (SHR). In words: Hypotensive effect in spontaneous hypertensive rats after oral administration. The format is in vivo. As to conditions: Rattus norvegicus, percent drop relative to blood pressure before medication; for inhibition in vivo at 1 mg/kg: 1 mg/kg p.o.; for inhibition in vivo at 3 mg/kg: 3 mg/kg p.o.; for inhibition in vivo at 10 mg/kg: 10 mg/kg p.o. As for the experimental part: The hypotensive activities of the compounds of this invention were tested as follows: The test animals used were spontaneous hypertensive rats (SHR) of 5 to 7 month old weighing 300 to 370 g. The blood pressure and the heart rate were measured bloodily under no anesthesia by means of a cathether which has been inserted through the tail's artery under ether anesthesia, thereby determining the average blood pressure and heart rate before medication. […] The hypotensive effect was expressed as percent drop relative to the blood pressure before medication.

Data set [2] can be described thus: Acute toxicity (LD50) in mice, Litchfield-Wilcoxon method. The following applies: mouse, in vivo. On the procedure:
The values for acute toxicity (LD50 ) were calculated by the Litchfield-Wilcoxon method from the data obtained on mice.

In general, inhibition in vivo refers to the drop in the measured response relative to a control, in per cent. Low readings indicate a weak effect, high ones a strong effect. The term LD50 denotes the dose expected to kill half of the subjects tested. In data set [1], `c1ccc2c(c1)OCC(CNCCCCc1ccc3c(c1)OCCO3)O2` (stereo not drawn) [Compound 16, 6-[4-{(1,4-benzodioxan-2-ylmethyl)amino}butyl]-1,4-benzodioxane] displayed an inhibition in vivo at 1 mg/kg of 12.1%, an inhibition in vivo at 3 mg/kg of 33.7% and an inhibition in vivo at 10 mg/kg of 50%. In addition, in data set [2] (iv), the LD50 was 31 mg/kg.
Consider `OC(CNCC1COc2ccccc2O1)c1ccc2c(c1)OCCO2` (stereo not drawn) [Compound 21, 6-[2-{(1,4-benzodioxan-2-ylmethyl)amino}-1-hydroxyethyl]-1,4-benzodioxane], for which, in data set [1], the inhibition in vivo at 1 mg/kg amounted to 9.8%, testing at 3 mg/kg gave an inhibition in vivo of 19.5% and at 10 mg/kg the inhibition in vivo was 39.1%.
Regarding `O=C(CCNCC1COc2ccccc2O1)Nc1ccc2c(c1)OCO2` (stereo not drawn) [Compound 18, N-[3-{(1,4-benzodioxan-2-ylmethyl)amino}propionyl]-3,4-methylenedioxyaniline], in data set [1], the inhibition in vivo at 1 mg/kg amounted to 11.9%, at 3 mg/kg the inhibition in vivo was 27.5% and the inhibition in vivo at 10 mg/kg worked out at 41%.
Consider `c1ccc2c(c1)OCC(CNCCCNc1ccc3c(c1)OCO3)O2` (stereo not drawn) [Compound 19, N-[3-{(1,4-benzodioxan-2-ylmethyl)amino}propyl]-3,4-methylenedioxyaniline], for which, in data set [1], the inhibition in vivo at 1 mg/kg is 19.6%, at 3 mg/kg the inhibition in vivo was 27.8% and the inhibition in vivo at 10 mg/kg amounted to 44.3%.
In data set [1], `c1ccc2c(c1)OCC(CNCCCCOc1ccc3c(c1)OCO3)O2` (stereo not drawn) [Compound 6] had an inhibition in vivo at 3 mg/kg of 28.5% and an inhibition in vivo at 10 mg/kg of 32%.
In data set [1], `Cl.OC(CNCC1COc2ccccc2O1)COc1ccc2c(c1)OCO2` (stereo not drawn) [Compound 1, 5-[3-{(1,4-benzodioxan-2-ylmethyl)amino}-2-hydroxypropoxy]-1,3-benzodioxole hydrochloride] returned an inhibition in vivo at 1 mg/kg of 9.9%, an inhibition in vivo at 3 mg/kg of 15.4% and an inhibition in vivo at 10 mg/kg of 27.6%. Besides, the LD50 in data set [2] (po) amounted to 515 mg/kg.
In data set [1], `c1ccc2c(c1)OCC(CNCCCOc1ccc3c(c1)OCCCO3)O2` (stereo not drawn) [Compound 9, 1-[3-{(1,4-benzodioxan-2-ylmethyl)amino}propoxy]-3,4-trimethylenedioxybenzene] yielded an inhibition in vivo at 3 mg/kg of 30.1% and an inhibition in vivo at 10 mg/kg of 48.4%.
In data set [1], `c1ccc2c(c1)OCC(CNCCCOc1ccc3c(c1)OCCO3)O2` (stereo not drawn) [Compound 7, 6-[3-{(1,4-benzodioxan-2-ylmethyl)amino}propoxy]-1,4-benzodioxane] displayed an inhibition in vivo at 3 mg/kg of 35.2% and an inhibition in vivo at 10 mg/kg of 55.3%.
Take `c1ccc2c(c1)OCC(CNCCOc1cccc3c1OCO3)O2` (stereo not drawn) [Compound 26, reference compound]: in data set [1], at 3 mg/kg the inhibition in vivo was 3.5% and the inhibition in vivo at 10 mg/kg was 8.1%.
In data set [1], `O=C(CCNCC1COc2ccccc2O1)c1ccc2c(c1)OCO2` (stereo not drawn) [Compound 27, reference compound] yielded an inhibition in vivo at 1 mg/kg of 7.8%, an inhibition in vivo at 3 mg/kg of 12.8% and an inhibition in vivo at 10 mg/kg of 30.3%.
As to `c1ccc2c(c1)OCC(CNCCCCc1ccc3c(c1)OCCCO3)O2` (stereo not drawn) [Compound 17, 1-[4-{(1,4-benzodioxan-2-ylmethyl)amino}butyl]-3,4-trimethylenedioxybenzene hydrochloride], in data set [1], 1 mg/kg produced 20.1% inhibition in vivo and the inhibition in vivo at 3 mg/kg amounted to 29.7%.
In data set [1], `c1ccc2c(c1)OCC(CNCCCCOc1cccc3c1OCO3)O2` (stereo not drawn) [Compound 10] had an inhibition in vivo at 3 mg/kg of 30.6% and an inhibition in vivo at 10 mg/kg of 40%.
In data set [1], `OC(CNCC1COc2ccccc2O1)COc1ccc2c(c1)OCCO2` (stereo not drawn) [Compound 2, 6-[3-{(1,4-benzodioxan-2-ylmethyl)amino}-2-hydroxypropoxy]-1,4-benzodioxane] showed an inhibition in vivo at 1 mg/kg of 9%, an inhibition in vivo at 3 mg/kg of 20.2% and an inhibition in vivo at 10 mg/kg of 30.4%.
`Cl.O=C(CNCC1COc2ccccc2O1)c1ccc2c(c1)OCO2` (stereo not drawn) [Compound 12, 5-[2-{(1,4-benzodioxan-2-ylmethyl)amino}acetyl]-1,3-benzodioxole hydrochloride]: in data set [1], 1 mg/kg produced 20.1% inhibition in vivo, testing at 3 mg/kg gave an inhibition in vivo of 28.2% and the inhibition in vivo at 10 mg/kg worked out at 42.3%. In data set [2] (po), this molecule gave an LD50 of 1350 mg/kg.
`Cl.c1ccc2c(c1)OCC(CNCCCOc1ccc3c(c1)OCO3)O2` (stereo not drawn) [Compound 5, 5-[3-{(1,4-benzodioxan-2-ylmethyl)amino}propoxy]-1,3-benzodioxole hydrochloride]: in data set [1], the inhibition in vivo at 3 mg/kg turned out to be 32.6% and at 10 mg/kg the inhibition in vivo was 47.6%. The molecule also displayed an LD50 in data set [2] (ip) of 165 mg/kg.
